The test concerns the target T1, Human IP6K1 (Homo sapiens, UniProt Q92551).
T1 construct: GST (N, cleaved yes); made in house; host or cells: C43 E. coli, pGEX-6P-2
Description: IP6K1 high-throughput screen of the Sigma LOPAC (ADP-Glo Max, single point).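 Further: final compound concentration 10µM in 5% DMSO.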 The format is biochemical.

Where [1] appears, read: LOPAC single-point screen, ADP-Glo Max raw signal per well.
Setting [2] is: LOPAC single-point screen, Z-score from raw signal with plate average and StDev.
Setting [3] is: LOPAC single-point screen, Z-score against plate average and StDev.
The mark [4] stands for this setting: Sigma LOPAC single-point screen, ADP-Glo Max raw signal per well.
Setting [5] is: Sigma LOPAC single-point screen, Z-score from plate average and StDev.
Where [6] appears, read: LOPAC single-point screen, ADP-Glo Max luminescence raw signal per well.
Where [7] appears, read: LOPAC single-point screen, Z-score from plate average and StDev.
The mark [8] stands for this setting: LOPAC single-point screen, Z-score relative to plate average and StDev.

The values that follow come from PMC5706701, “Development of a homogenous high-throughput assay for inositol hexakisphosphate kinase 1 activity” (PLoS ONE, 2017).

Molecules are shown by their SMILES. Structures can show the parent of a compound that is named as a salt. Where two headings read alike, the source gives them in different places.

T1 sequence (Q92551 whole entry): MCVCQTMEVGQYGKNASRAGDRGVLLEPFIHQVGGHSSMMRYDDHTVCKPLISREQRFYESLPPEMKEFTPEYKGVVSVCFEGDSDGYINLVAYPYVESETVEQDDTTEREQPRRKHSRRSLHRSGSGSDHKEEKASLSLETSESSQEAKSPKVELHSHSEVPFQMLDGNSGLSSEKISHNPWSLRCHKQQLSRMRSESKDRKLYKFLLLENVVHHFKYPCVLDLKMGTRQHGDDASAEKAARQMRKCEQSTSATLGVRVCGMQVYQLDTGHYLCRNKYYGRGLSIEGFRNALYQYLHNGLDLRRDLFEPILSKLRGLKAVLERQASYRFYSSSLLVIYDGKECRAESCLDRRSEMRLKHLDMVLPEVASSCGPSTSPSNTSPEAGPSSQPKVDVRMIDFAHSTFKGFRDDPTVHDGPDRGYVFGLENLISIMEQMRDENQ

With `O=C([O-])c1cc2cc(Cc3cccnc3)ccc2o1.[Na+]` [Furegrelate sodium], the “Raw Signal” value under setting [1] stood at 53193. The Z-score under setting [2] is recorded as -0.4009.
For `Clc1ccc(N2C[C@H]3CC[C@@H](C2)N3)nn1` [DBO-83] the same measures were 54063 and -0.2242.
For the molecule `Cl.Clc1ccc(N2CCN(Cc3c[nH]c4ncccc34)CC2)cc1` [L-745,870 hydrochloride], under setting [1], the “Raw Signal” value is 55866. This molecule had a Z-score under setting [3] of 0.2474.
With `CC[N+](CC)(CC)CCOc1ccc(/C=C/c2ccccc2)cc1` [MG 624], under setting [4], the “Raw Signal” value is reported as 57360. Under setting [5], this molecule showed a Z-score of 0.4984.
With `Cc1cc(C(C)(C)C)c(O)c(C)c1CC1=NCCN1` [Oxymetazoline hydrochloride], under setting [1], the “Raw Signal” value worked out at 52488. Also, the Z-score under setting [2] was -0.3202.
For `O=C(O)/C=C\C(=O)O.O=C(O)/C=C\C(=O)O.c1ccc2nc(N3CCNCC3)ccc2c1` [Quipazine dimaleate], the “Raw Signal” value under setting [1] is 57228. Under setting [3], this molecule returned a Z-score of 0.234.
As to `OCCN1CCN(CCCN2c3ccccc3Sc3ccc(Cl)cc32)CC1` [Perphenazine], under setting [4], the “Raw Signal” value came to 57078. The Z-score under setting [5] worked out at 0.4511.
With `CCCCCCCCCCCCCCC[C@H](O)[C@H](N)CO` (racemic) [DL-erythro-Dihydrosphingosine], the “Raw Signal” value under setting [1] came out at 54857. Further, under setting [3], the Z-score is -0.06296.
`CN(C)c1nc(N(C)C)nc(N(C)C)n1` [Altretamine]: the “Raw Signal” value under setting [6] was found to be 69030. Further, the Z-score under setting [7] was determined as 1.958.
As to `O=c1n(CCCN2CCN(c3cccc(Cl)c3)CC2)nc2ccccn12` [Trazodone hydrochloride], the “Raw Signal” value under setting [4] is 58114. Also, under setting [5], the Z-score is given as 0.4061.
Regarding `Nc1ccc2c3c(cccc13)C(=O)NC2=O` [4-Amino-1,8-naphthalimide], under setting [6], the “Raw Signal” value stood at 55002. Also, the Z-score under setting [8] is recorded as -0.5127.
As to `O=C(O)c1cc([N+](=O)[O-])ccc1NCCCc1ccccc1`, the “Raw Signal” value is 51963 and the Z-score is -0.4084.
In the case of `CCCNC[C@H](O)COc1ccccc1C(=O)CCc1ccccc1.Cl` [(S)-(-)-propafenone hydrochloride], the “Raw Signal” value under setting [6] is on record as 52495. Also, the Z-score under setting [8] was -0.6856.
Take `Cl.NCCC[C@](N)(C(=O)O)C(F)F` (racemic): under setting [6], the “Raw Signal” value is 51967. In addition, the Z-score under setting [8] is recorded as -0.6499.
`CC(=O)O[C@H]1C[C@@H]2CC[C@@H]3[C@H](CC[C@@]4(C)[C@H]3C[C@H]([N+]3(C)CCCCC3)[C@@H]4OC(C)=O)[C@@]2(C)C[C@@H]1[N+]1(C)CCCCC1` [Pancuronium bromide]: under setting [4], the “Raw Signal” value came out at 59072. Further, the Z-score under setting [5] was 0.7861.
As for `CC[C@H]1CN2CCc3cc(OC)c(OC)cc3[C@@H]2C[C@@H]1C[C@H]1NCCc2cc(OC)c(OC)cc21` [Emetine dihydrochloride hydrate], the “Raw Signal” value under setting [1] came to 52998. For the same molecule, the Z-score under setting [2] was -0.4405.
In the case of `C[N+](C)(C)CCC(=O)c1cccc2ccccc12.[I-]`, the “Raw Signal” value under setting [1] was 55064. Also, the Z-score under setting [3] is listed as 0.1127.
In the same order, the values of `CC(=O)[C@]1(O)Cc2c(O)c3c(c(O)c2[C@@H](O[C@H]2C[C@H](N)[C@H](O)[C@H](C)O2)C1)C(=O)c1ccccc1C3=O` [Idarubicin] are 55218 and 0.01035.
With `C[C@@H](N)[C@H]1CC[C@H](C(=O)Nc2ccncc2)CC1.Cl.Cl` [Y-27632 dihydrochloride], under setting [1], the “Raw Signal” value was found to be 53228. The Z-score under setting [2] is on record as -0.3938.
In the same order, the values of `O=C(c1ccc(OCCN2CCCCC2)cc1)c1c(-c2ccc(O)cc2)sc2cc(O)ccc12` [Raloxifene hydrochloride] are 54124 and -0.3691.
`COC(=O)[C@H](NC(=O)c1cc(-c2ccccc2)nc2ccccc12)c1ccccc1` [SB 218795]: under setting [4], the “Raw Signal” value stood at 57840. For the same molecule, the Z-score under setting [5] was found to be 0.5429.
On to `c1ccc(-c2ccccn2)nc1` [2,2 -Bipyridyl], for which, under setting [1], the “Raw Signal” value was determined as 56711. Under setting [3], this molecule had a Z-score of 0.3136.
As to `c1ccc2c(c1)OCC(C1=NCCN1)O2` (stereo not shown) [Idazoxan hydrochloride], the “Raw Signal” value under setting [4] came out at 58161. The molecule also had a Z-score under setting [5] of 0.633.
`CNCCCN1c2ccccc2CCc2ccccc21` [Desipramine hydrochloride]: under setting [6], the “Raw Signal” value was found to be 49945. The Z-score under setting [8] is listed as -1.061.
`CN1CCCC1c1cccnc1.Cc1ccc(C(=O)OC(C(=O)O)C(OC(=O)c2ccc(C)cc2)C(=O)O)cc1` (stereo not drawn) [(+)-Nicotine (+)-di-p-toluoyl tartrate]: the “Raw Signal” value amounted to 52925 and the Z-score is -0.2467.
In the case of `CN(CCOc1ccc(C[C@H](Nc2ccccc2C(=O)c2ccccc2)C(=O)O)cc1)c1ccccn1` [GW1929], the “Raw Signal” value under setting [1] is reported as 55887. This molecule also yielded a Z-score under setting [3] of 0.1462.
Take `CCCCC/C=C\C[C@@H](O)/C=C/c1cccc(C[C@@H](O)CCCCO)n1` [U-75302]: the “Raw Signal” value under setting [6] came to 63793. Under setting [7], the Z-score was found to be 1.509.
Turning to `NC1CCN(O)C1=O` (racemic) [(±)-HA-966], under setting [1], the “Raw Signal” value was found to be 57782. Also, the Z-score under setting [3] is -0.02309.
For `COc1cc2nc(N3CCN(C(=O)c4ccco4)CC3)nc(N)c2cc1OC` [Prazosin hydrochloride] the same measures were 56945 and 0.179.
In the same order, the values of `COc1cc(C(O)CN)ccc1O.Cl` (racemic) [(±)-Normetanephrine hydrochloride] are 54540 and 0.02461.
With `S=C=Nc1ccc2oc(C3=NCCN3)cc2c1` [BU99006], the “Raw Signal” value under setting [1] came out at 56328. For the same molecule, under setting [3], the Z-score is reported as 0.2358.
Take `CN1C2CCC1CC(OC(c1ccccc1)c1ccc(Cl)cc1)C2.Cl` (stereo not shown): the “Raw Signal” value under setting [6] is on record as 50933. The Z-score under setting [8] is -0.8599.
As to `O=C1Nc2ccccc2/C1=C1/Nc2ccccc2/C1=N\O` [Indirubin-3 -oxime], the “Raw Signal” value under setting [4] is listed as 58050. Besides, the Z-score under setting [5] turned out to be 0.5855.
Regarding `Cl.Oc1cc2c(cc1O)C(c1ccccc1)CNCC2` (racemic) [(±)-SKF-38393 hydrochloride], the “Raw Signal” value under setting [6] is listed as 48418. The Z-score under setting [8] was -1.371.
Turning to `CN(C)CCOC(=O)COc1ccc(Cl)cc1` [Centrophenoxine hydrochloride], under setting [6], the “Raw Signal” value was 69002. Under setting [7], this molecule had a Z-score of 1.953.
Consider `Nc1nc2c(nc(Br)n2[C@@H]2O[C@@H]3COP(=O)([O-])O[C@H]3[C@H]2O)c(=O)[nH]1.[Na+]` [8-Bromo-cGMP sodium], for which the “Raw Signal” value under setting [1] was 55323. The Z-score under setting [2] was -0.4562.
On to `C[C@H]1C[C@H]2[C@@H]3CCC4=CC(=O)C=C[C@]4(C)[C@@]3(Cl)[C@@H](O)C[C@]2(C)[C@@]1(O)C(=O)CO` [Beclomethasone], for which the “Raw Signal” value under setting [1] worked out at 55439. Further, the Z-score under setting [2] is given as -0.4358.
For `C[N+]1(C)CCc2cc3c(cc2[C@H]1[C@@H]1OC(=O)c2c1ccc1c2OCO1)OCO3.[Br-]` [(-)-Bicuculline methbromide, 1(S), 9(R)] the same measures were 56332 and -0.2785.
